In patent publication EP4711377A1, “STEROID COMPOUND, PREPARATION METHOD THEREFOR, AND USE THEREOF” (Shujing Biopharma Co., Ltd, priority 2023, dated 2024):

Assays:
[1] = tested on: mice with PTZ-induced convulsions; assay: in vivo efficacy experiment in PTZ-induced epilepsy mouse model; parameters: species or system C57 mice; settings: for Survival rate: 60 min before PTZ 120 mg/kg s.c., 30 min observation; for Number of clonic seizures / Number of tonic seizures / Clonic seizure latency period / Tonic seizure latency period: Mean ± SEM; for Clonic seizure latency period / Tonic seizure latency period: no seizure in 30 min recorded as 1800 s; for protective effects against acute epileptic seizures: conclusion in words
Description: Male C57 mice, purchased from SPF (Suzhou) Biotechnology Co., Ltd.
PTZ: a 120 mg/kg PTZ solution (administration volume: 10 mL/kg) was prepared with normal saline as the solvent.
Test compounds: solutions of the test compounds at 3/1/0.3 mg/kg (administration volume: 10 mL/kg) were prepared with Vehicle in section 1.4 as the solvent.
One hour before the test, the experimental animals were transferred into an operation room for acclimation.
The mice were randomly grouped, marked, and weighed, with 10 mice in each group. At 60 min before PTZ administration, the test compounds and Vehicle were separately orally administered.
The PTZ solution was administered subcutaneously before experimental observation, and this time point was recorded as the observation starting point.
Immediately after PTZ administration, the animals were placed in observation boxes and observed for 30 min. The following observations of the animals were recorded:
Clonic seizure: the animal has a generalized myoclonus that lasts for more than 3 s and is accompanied by falling.
Tonic seizure: the limbs are straightened at a 90° angle to the torso.
All metrology data were expressed as mean ± standard error of mean (Mean ± SEM), and the Prism 8.0 statistical software was used for data testing and analysis.

[2] = biological target: GABAa receptor (α1β2γ2) (Homo sapiens, UniProt P14867+P47870); assay: in vitro GABAa receptor (α1β2γ2) cellular activity assay, manual whole-cell patch clamp, enhancement of currents induced by 1 µM GABA; format: cell-based; settings: CHO cells; for activation at 0.1 µM: read-out: Agonist ratio
Chain of GABAa receptor (α1β2γ2) (P14867 28-456): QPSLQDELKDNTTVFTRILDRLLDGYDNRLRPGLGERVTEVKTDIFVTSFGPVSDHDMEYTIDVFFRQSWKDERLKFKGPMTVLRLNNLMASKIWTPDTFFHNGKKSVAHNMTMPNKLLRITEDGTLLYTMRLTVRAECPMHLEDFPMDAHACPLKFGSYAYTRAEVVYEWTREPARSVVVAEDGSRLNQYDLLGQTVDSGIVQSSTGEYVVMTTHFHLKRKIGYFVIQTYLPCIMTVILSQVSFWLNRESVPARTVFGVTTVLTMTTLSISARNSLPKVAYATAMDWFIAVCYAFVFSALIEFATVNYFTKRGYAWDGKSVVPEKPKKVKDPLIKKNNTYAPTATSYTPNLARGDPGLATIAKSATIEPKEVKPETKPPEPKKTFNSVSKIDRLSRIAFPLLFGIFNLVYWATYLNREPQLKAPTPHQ
Chain of GABAa receptor (α1β2γ2) (P47870 25-512 limits assumed): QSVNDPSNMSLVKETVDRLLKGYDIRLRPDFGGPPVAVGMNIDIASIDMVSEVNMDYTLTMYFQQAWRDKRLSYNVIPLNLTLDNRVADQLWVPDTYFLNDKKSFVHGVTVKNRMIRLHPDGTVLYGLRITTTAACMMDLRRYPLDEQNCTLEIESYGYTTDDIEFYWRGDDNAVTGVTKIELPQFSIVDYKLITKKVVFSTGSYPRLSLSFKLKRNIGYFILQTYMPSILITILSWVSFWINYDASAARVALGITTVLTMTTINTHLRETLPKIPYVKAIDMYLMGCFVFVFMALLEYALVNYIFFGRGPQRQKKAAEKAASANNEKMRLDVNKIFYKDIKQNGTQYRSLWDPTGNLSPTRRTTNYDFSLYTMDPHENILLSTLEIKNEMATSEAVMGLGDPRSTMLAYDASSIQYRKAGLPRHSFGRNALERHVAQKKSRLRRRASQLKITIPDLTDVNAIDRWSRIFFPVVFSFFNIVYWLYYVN
Chain of GABAa receptor (α1β2γ2) (P18507 40-475 partner): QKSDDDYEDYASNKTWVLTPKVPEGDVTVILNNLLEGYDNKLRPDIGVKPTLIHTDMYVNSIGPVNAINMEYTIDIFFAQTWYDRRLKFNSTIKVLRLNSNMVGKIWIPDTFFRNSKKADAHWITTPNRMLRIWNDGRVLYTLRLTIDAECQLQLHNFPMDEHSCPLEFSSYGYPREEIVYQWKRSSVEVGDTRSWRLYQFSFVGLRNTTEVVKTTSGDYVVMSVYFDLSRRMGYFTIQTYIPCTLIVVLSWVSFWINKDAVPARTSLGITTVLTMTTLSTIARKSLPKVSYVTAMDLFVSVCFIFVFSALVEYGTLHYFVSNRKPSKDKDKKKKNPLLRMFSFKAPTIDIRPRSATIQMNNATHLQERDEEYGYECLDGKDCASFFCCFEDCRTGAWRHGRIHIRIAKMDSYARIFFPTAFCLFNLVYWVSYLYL
Description: The cells used in this experiment were derived from a CHO cell line that stably expressed normal GABAa receptor functions after transfection with human GABAa receptor α1, β2, and γ2 subunit cDNAs. The cell line was constructed by B'sys GmbH. The cells were cultured in a medium (purchased from Invitrogen) containing the following components: DMEM culture medium; 10% (v/v) inactivated fetal bovine serum; 5 µg/mL Puromycin; 250 µg/mL Hygromycin B; and 100 µg/mL Zeocin. The cells were grown in culture dishes containing the above medium and cultured in an incubator at 37 °C with 5% CO2. 12 h to 24 h before the electrophysiological experiment, the cells were transferred onto circular glass slides placed in culture dishes, and were grown under the same medium and culture conditions as above. The density of cells on each circular glass slide was required to meet the requirement that the overwhelming majority of cells were independent and individual.
In this experiment, a manual patch-clamp system HEKA EPC10 USB signal amplifier and digital conversion system (purchased from HEKA Electronics, Germany) were used for whole-cell current recording. The circular glass slides with surface-grown CHO GABAa cells (see the cell culture and requirement section above) were taken out from the culture dishes and then placed into an electrophysiological recording chamber under an inverted microscope. The recording chamber was continuously perfused with extracellular fluid (approximately 1-2 mL/min). In the experiment, the whole-cell current recording technique was employed to record chloride ion currents of GABAa channels. 1 µM GABA was used to activate chloride ion currents of GABAa channels on each cell as an initial control (the reason for using 1 µM GABA concentration was that: this concentration was an effective activation concentration for the GABAa ion channel agonist GABA on the cells used in this experiment, falling between 10% and 20%). Unless otherwise specified, the experiment was performed at conventional room temperature (about 25 °C), and only cells meeting the electrophysiological recording criteria were adopted. In the experiment, the cells were ruptured and sealed, and were clamped at -80 mV after entering a whole-cell state. 1 µM GABA acted on the cells through the drug perfusion system to induce chloride ion currents of GABAa channels; the action time was about 4 s, and the current magnitude was used as the initial control value. Subsequently, the cells were perfused and incubated with the test concentration compound for 3 min, and then a mixed solution of 1 µM GABA and the corresponding test concentration compound was applied to act on the cells to induce currents, so as to observe the enhancing effect of the test compound on the currents induced by 1 µM GABA. When the cell state stabilized, the test compound would be applied from low to high concentrations to act on the same cell. In the experiment, to avoid current reduction caused by desensitization of GABAa ion channels, the interval time for the test substance acting on the cells through the drug perfusion system was at least 180 s.
The experimental data were analyzed using data analysis software provided by HEKA Patchmaster, Microsoft Excel, and Graphpad Prism.

[3] = in vivo pharmacokinetic experiment in mice; parameters: species or system ICR mice; settings: mouse, oral intragastric administration 10 mg/kg, single, plasma
Description: Male ICR mice were subjected to oral intragastric administration. The plasma concentrations of the compounds of the present disclosure in the mice were measured, the PK parameters were calculated, and pharmacokinetic evaluation was performed on the compounds of the present disclosure.
Drug preparation: according to the weight of the weighed drug, the preparation volume was calculated; 5% of DMSO and 5% of HS-15 were added sequentially; after the drug was fully dissolved, 90% of a 20% aqueous β-cyclodextrin solution was added, and the mixture was well mixed for later use.
Route of administration: oral intragastric administration, at a dose of 10 mg/kg.
Administration frequency and duration: single administration.
ICR mice were stratified according to body weight and then randomly grouped, with 9 mice per group. The mice were fasted overnight prior to the experiment. The mice were subjected to oral intragastric administration. At 0 h, 0.167 h, 0.333 h, 0.5 h, 1 h, 2 h, 4 h, 6 h, 8 h, 12 h, and 24 h, 50 µL of blood was collected from the fundus vein of each mouse into a sample tube containing heparin sodium as an anticoagulant, and then the tube was placed in wet ice and centrifuged at 4000 r·min^-1 for 10 min. The plasma was separated, and cryopreserved in a refrigerator at -80 °C for testing.
The concentrations of the plasma samples were measured by high-performance liquid chromatography-tandem mass spectrometry (LC-MS/MS). The retention times of the compounds and internal standard, chromatographic acquisitions, and integrals of chromatograms were processed using the software Analyst (AB SCIEX), and statistical analysis of the data was performed using the software Microsoft office. The plasma concentrations were processed using a non-compartmental model of the pharmacokinetic software WinNonlin™ Version 6.3 (Pharsight, Mountain View, CA), and the pharmacokinetic parameters were calculated using a linear log-trapezoidal method. Table 4. Results of pharmacokinetic experiment in mice

[4] = single concentration 0.1 µM, relative enhancement amplitude of GABAa receptor currents induced by 1 µM GABA

Molecule: 1-((2S,3S,5R,8R,9R,108,13S,14S,15R,17S)-3-Hydroxy-2,3,13,15-tetramethylhexadecahydro-1H-cyclopenta[a]phenanthren-17-yl)-2-(1H-1,2,3-triazol-1-yl)ethan-1-one [Example 8]
- Survival rate ([1]; dose 3 mg/kg p.o.): 100%

Molecule: C[C@@H]1C[C@H](C(=O)Cn2cc(C#N)cn2)[C@@]2(C)CC[C@H]3[C@@H](CC[C@@H]4C[C@](C)(O)[C@@H](C)C[C@@H]43)[C@H]12 [Example 2, 1-(2-((2S,3S,5R,8R,9R,10S,13S,14S,15R,17S)-3-Hydroxy-2,3,13,15-tetramethylhexadecahydro-1H-cyclopenta[a]phenanthren-17-yl)-2-oxoethyl)-1H-pyrazole-4-carbonitrile]
- EC50 ([2]; positive modulator enhancing GABAa receptor currents induced by 1 µM GABA, read-out: EC50): 22 nM
- AUC(0-t) [3]: 16600 ng·h/mL
- Cmax [3]: 1240 ng/mL
- Tmax [3]: 4 h
- half-life [3]: 7.38 h

Molecule: C[C@@H]1C[C@H](C(=O)Cn2ccc(C(F)(F)F)n2)[C@@]2(C)CC[C@H]3[C@@H](CC[C@@H]4C[C@](C)(O)[C@@H](C)C[C@@H]43)[C@H]12 [Example 4, 1-((2S,3S,5R,8R,9R,10S,13S,14S,15R,17S)-3-Hydroxy-2,3,13,15-tetramethylhexadecahydro-1H. cyclopenta[a]phenanthren-17-yl)-2-(3-(trifluoromethyl)-1H-pyrazol-1-yl)ethan-1-one]
- Agonist ratio [2, 4]: 626%

Molecule: C[C@@H]1C[C@H](C(=O)Cn2nc(C#N)cc2C#N)[C@@]2(C)CC[C@H]3[C@@H](CC[C@@H]4C[C@](C)(O)[C@@H](C)C[C@@H]43)[C@H]12 [Example 5, 1-(2-((2S,3S,5R,8R,9R,10S,13S,14S,15R,17S)-3-Hydroxy-2,3,13,15-tetramethylhexadecahydro-1H-cyclopenta[a]phenanthren-17-yl)-2-oxoethyl)-1H-pyrazole-3,5-dicarbonitrile]
- Survival rate ([1]; dose 0.3 mg/kg p.o.): 10%
- Survival rate ([1]; dose 1 mg/kg p.o.): 90%
- Survival rate ([1]; dose 3 mg/kg p.o.): 100%
- Number of clonic seizures ([1]; dose 3 mg/kg p.o.): 0.6±0.2
- Number of tonic seizures ([1]; dose 3 mg/kg p.o.): 0.0±0.0
- Clonic seizure latency period ([1]; dose 3 mg/kg p.o.): 1133.7 ± 192.7 s
- Tonic seizure latency period ([1]; dose 3 mg/kg p.o.): 1800.0 ± 0.0 s
- protective effects against acute epileptic seizures ([1]; extremely low dose (0.3 mpk)): partial protective effects
- protective effects against acute epileptic seizures ([1]; low dose (1 mpk)): significant protective effects

Molecule: C[C@@H]1C[C@H](C(=O)Cn2cncn2)[C@@]2(C)CC[C@H]3[C@@H](CC[C@@H]4C[C@](C)(O)[C@@H](C)C[C@@H]43)[C@H]12 [Example 6, 1-((2S,3S,5R,8R,9R,10S,13S,14S,15R,17S)-3-Hydroxy-2,3,13,15-tetramethylhexadecahydro-1H-cyclopenta[a]phenanthren-17-yl)-2-(1H-1,2,4-triazol-1-yl)ethan-1-one]
- activation at 0.1 µM [2, 4]: 380%
- Survival rate ([1]; dose 1 mg/kg p.o.): 90%
- Survival rate ([1]; dose 3 mg/kg p.o.): 100%
- Number of clonic seizures ([1]; dose 3 mg/kg p.o.): 0.8±0.2
- Number of tonic seizures ([1]; dose 3 mg/kg p.o.): 0.0±0.0
- Clonic seizure latency period ([1]; dose 3 mg/kg p.o.): 1132.4 ± 195.9 s
- Tonic seizure latency period ([1]; dose 3 mg/kg p.o.): 1800.0 ± 0.0 s
- protective effects against acute epileptic seizures ([1]; low dose (1 mpk)): significant protective effects

Molecule: C[C@@H]1C[C@H](C(=O)Cn2nccn2)[C@@]2(C)CC[C@H]3[C@@H](CC[C@@H]4C[C@](C)(O)[C@@H](C)C[C@@H]43)[C@H]12 [Example 7, 1-((2S,3S,5R,8R,9R,10S,13S,14S,15R,17S)-3-Hydroxy-2,3,13,15-tetramethylhexadecahydro-1H-cyclopenta[a]phenanthren-17-yl)-2-(2H-1,2,3-triazol-2-yl)ethan-1-one]
- activation at 0.1 µM [2, 4]: 794%
- Survival rate ([1]; dose 3 mg/kg p.o.): 100%

Molecule: C[C@@H]1C[C@H](C(=O)Cn2cnnn2)[C@@]2(C)CC[C@H]3[C@@H](CC[C@@H]4C[C@](C)(O)[C@@H](C)C[C@@H]43)[C@H]12 [Example 10, 1-((2S,3S,5R,8R,9R,10S,13S,14S,15R,17S)-3-Hydroxy-2,3,13,15-tetramethylhexadecahydro-1H-cyclopenta[a]phenanthren-17-yl)-2-(1H-tetrazol-1-yl)ethan-1-one]
- Survival rate ([1]; dose 3 mg/kg p.o.): 100%

Molecule: C[C@@H]1C[C@H](C(=O)Cn2ncnn2)[C@@]2(C)CC[C@H]3[C@@H](CC[C@@H]4C[C@H](O)[C@@H](C)C[C@@H]43)[C@H]12 [Example 17, 1-((2S,3S,5R,8R,9R,10S,13S,14S,15R,17S)-3-Hydroxy-2,13,15-trimethylhexadecahydro-1H-cyclopenta[a]phenanthren-17-yl)-2-(2H-tetrazol-2-yl)ethan-1-one]
- activation at 0.1 µM [2, 4]: 217%

Molecule: C[C@H]1C[C@H]2[C@H](CC[C@@H]3[C@@H]2CC[C@]2(C)[C@@H](C(=O)Cn4cc(C#N)cn4)CC[C@@H]32)C[C@]1(C)O [Example 19, 1-(2-((2S,3S,5R,8R,9R,10S,13S,14S,17S)-3-Hydroxy-2,3,13-trimethylhexadecahydro-1H-cyclopenta[a]phenanthren-17-yl)-2-oxoethyl)-1H-pyrazole-4-carbonitrile]
- AUC(0-t) ([3]; male, ICR): 26700 ng·h/mL
- Cmax ([3]; male, ICR): 1650 ng/mL
- Tmax ([3]; male, ICR): 8 h
- half-life ([3]; male, ICR): > 8 h
